Laboratory results: PMC7887271, “Fast acting allosteric phosphofructokinase inhibitors block trypanosome glycolysis and cure acute African trypanosomiasis in mice” (Nature Communications, 2021)
Several values for one entry are separate records, joined by “and”; a condition that tells them apart may be missing. Equal entries are not always repeated. Where two headings read alike, the source gives them in different places.

Key:
T. b. brucei GVR35-VSL2 = assay: Mouse model of stage 1 and stage 2 HAT, bioluminescence imaging; format: in vivo, T. b. brucei in female CD-1 mice
From the text: An alternative mouse model for stage 1 (acute) and stage 2 (CNS-involved) HAT has been developed using a transgenic cell line derived from the pleiomorphic T. b. brucei GVR35 that expresses red-shifted firefly luciferase[17],[18]. […] T. b. brucei GVR35-infected mice present stage 1 disease by day 7 post infection with progression to stage 2 by day 21. By injecting the mouse with luciferin, the level of parasitaemia can be estimated in real time by monitoring the luminescence. Unlike monomorphic Lister 427 T. b. brucei, the pleiomorphic GVR35 T. b. brucei is controlled by a quorum-sensing mechanism resulting in the significant increase in survival time in mice and lower blood parasitaemia that occurs in waves. This extended survival time is also accompanied by parasite dissemination to multiple tissues and organs, including the skin, adipose tissue, lung and brain, with parasite loads increasing over time[17],[19].
For the mouse model of stage 1 and stage 2 HAT T. b. brucei GVR35-VSL2 parasites (3 × 10^4) were injected into a single donor female CD-1 mouse intraperitoneally. Once infection was established, starting on day 7 for stage 1 studies and day 21 for stage 2 studies, mice were either left untreated (n = 3) or dosed by oral gavage with CTCB compound in Cremophor EL: EtOH: D-PBS (30:10:60 v/v; n = 6). Progression of T. b. brucei GVR35-VSL2 infection was monitored primarily by in vivo bioluminescence imaging of infected mice using an IVIS Spectrum (PerkinElmer). For stage 1 studies, imaging of infected mice was performed before treatment on day 7 post infection and on days following the treatment (days 8, 9 and 14). Imaging on groups of three mice was performed 12 min after intraperitoneal injection of 150 mg kg^−1 D-luciferin (Promega) in PBS. For stage 2 studies, mice were imaged prior to treatment on day 21, and subsequently on days 22 and 23. On day 23, 24 h after the final dose, mice were sacrificed by cervical dislocation and perfused with PBS containing 15 g L^−1 glucose to allow ex vivo imaging of whole brains (Supplementary Figs. 12 and 13).
Female CD-1 (Charles River UK; 6-8 weeks old) mice were infected with 3 × 10^4 T. b. brucei GVR35-VSL2 bloodstream form parasites intraperitoneally. T. b. brucei GVR35-VSL2 expresses red-shifted luciferase and provides a better signal for imaging (13). Once infection was established, starting on day 7 for Stage 1 studies and day 21 for Stage 2 studies, mice were either left untreated (n=3) or dosed by oral gavage with CTCB compound in Cremophor EL: EtOH : D-PBS (30:10:60 v/v) (n = 6). Additional groups of mice (n=3) that received either a single intraperitoneal dose of diminazene aceturate (Sigma-Aldrich) at 40 mg/kg in sterile water or 0.1 ml melarsoprol gel (14) containing 3.6 mg melarsoprol, applied topically for 3 consecutive days, served as controls for Stage 1 and Stage 2 treatment studies, respectively.
Progression of T. b. brucei GVR35-VSL2 infection was monitored primarily by in vivo bioluminescence imaging of infected mice using an IVIS Spectrum (PerkinElmer) as described previously (5). For stage 1 studies, imaging of infected mice was performed before treatment on day 7 post-infection and in days following the treatment (days 8, 9 and 14). Imaging on groups of three mice was performed 12 minutes after intraperitoneal injection of 150 mg/kg D-luciferin (Promega) in PBS. For stage 2 studies, mice were imaged prior to treatment on day 21 and subsequently on days 22 and 23. On day 23, 24 hours after the final dose, mice were sacrificed by cervical dislocation and perfused with phosphate-buffered saline containing 15 g.L^−1 glucose to allow ex vivo imaging of whole brains. To this end, 100 μl D-luciferin was administered onto the brain surface and imaging performed immediately thereafter.

[1] = tested on: bloodstream form of T. brucei strain Lister 427; assay: T. b. brucei 427 growth inhibition assay (LILiT, Alamar Blue); format: cell-based; details: Trypanosoma brucei
Protocol: The ‘in vitro’ parasite killing assay used the BSF of the non-human pathogenic subspecies T. b. brucei, strain Lister 427, cultured in HMI-9 medium containing 10% foetal bovine serum. A second cell line, T. b. brucei GVR35-Luc2 which constitutively expresses firefly luciferase was grown in Modified HMI-9 plus 20% foetal calf serum supplemented with 20% Serum Plus (Sigma) and 0.15 μg mL^−1 puromycin. Both strains of trypanosomes were cultured in T-25 vented cap flasks at 37 °C and 5% CO2.
The ‘in vitro’ parasite killing assay used the bloodstream-form of the non-human pathogenic subspecies T. b. brucei, strain Lister 427 (a gift from Professor Keith Matthews) which was cultured in HMI-9 medium containing 10% fetal bovine serum (FBS). A second cell line, T. b. brucei GVR35-Luc2 which constitutively expresses firefly luciferase (5) was grown in Modified HMI-9 plus 20% fetal calf serum (FCS) supplemented with 20% Serum Plus (Sigma) and 0.15 μg/ml puromycin as described previously (5). Both strains of trypanosomes were cultured in T-25 vented cap flasks at 37 °C and 5% CO2.
Growth inhibition tests of bloodstream-form T. b. brucei Lister 427 were carried out using the LILiT (long incubation low inoculation test) method (6). The parasites were cultured in complete HMI-9 medium containing 10% FBS in 96-well plates (Greiner Inc.) with approximately 2500 trypanosomes per well. A 3-fold dilution series (in the range from 45 µM – 0.020 µM) of the inhibitor compounds were prepared in the plate; the maximal concentration of DMSO was 0.45%. After 72 hours of incubation at 37 °C and 5% CO2, 50 µl Alamar Blue (0.2% diluted with Dulbecco’s-phosphate buffered saline (D-PBS, Sigma) was added to each well and plates were incubated at 37 °C and 5% CO2 for 4 hours. Fluorescence was read on the BMG multiplate reader using an excitation wavelength of 530 nm and an emission wavelength of 590 nm.

[2] = target: T1, T. brucei phosphofructokinase (TbPFK) (Trypanosoma brucei brucei, UniProt O15648); assay: ADP-Glo assay for measuring PFK inhibition; format: biochemical
T1 construct: made in house; host or cells: Escherichia coli C41 (pET28a, codon optimised gene)
T1 sequence (O15648 1-487): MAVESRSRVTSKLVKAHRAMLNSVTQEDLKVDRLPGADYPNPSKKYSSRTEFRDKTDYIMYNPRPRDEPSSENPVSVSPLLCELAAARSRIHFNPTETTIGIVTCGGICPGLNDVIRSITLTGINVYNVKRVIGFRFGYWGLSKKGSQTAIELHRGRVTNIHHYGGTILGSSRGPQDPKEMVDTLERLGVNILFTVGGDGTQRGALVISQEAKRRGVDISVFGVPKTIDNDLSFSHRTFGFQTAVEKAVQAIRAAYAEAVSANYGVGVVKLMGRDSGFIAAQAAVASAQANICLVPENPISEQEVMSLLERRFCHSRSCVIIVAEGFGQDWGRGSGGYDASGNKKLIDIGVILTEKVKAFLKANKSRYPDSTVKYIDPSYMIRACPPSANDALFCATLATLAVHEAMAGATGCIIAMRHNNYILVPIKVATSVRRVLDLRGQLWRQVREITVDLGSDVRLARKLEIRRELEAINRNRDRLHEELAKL
Protocol: Parasite enzyme kinetic data were measured using N-terminally His6-tagged TbPFK expressed in Escherichia coli C41 cells, using a codon optimised gene inserted in a pET28a vector (Supplementary Methods 1). Recombinant human PFKs were expressed in PFK-deficient Saccharomyces cerevisiae. PFK enzyme inhibition was measured using an ADP-Glo^TM assay (Promega) in a 96-well plate format (Supplementary Methods 2.1), using a Spectramax© M5 Multimode Plate Reader to measure luminescence values which were converted to ADP concentrations. IC50 values were determined using a sigmoidal curve fitting algorithm in Kaleidagraph 4 (Supplementary Fig. 1). Mode of action studies were carried out using a linked enzyme assay coupling the forward reaction of TbPFK to the M1 isoform of human pyruvate kinase followed by lactate dehydrogenase. The change in UV absorbance at 340 nm resulting from the conversion of NADH to NAD^+ was measured at 25 °C in ‘kinetic mode’ on a Spectramax© M5 Multimode plate reader. Initial velocities were plotted against substrate concentration to give curves showing non-competitive inhibition (Supplementary Fig. 2). An alternative linked enzyme assay was developed to control for the potential inhibitory activity of ATP on human PFK (Supplementary Methods 2.3).
The ADP-Glo™ end-point assay kit manufactured by Promega (cat. No. V9102) was used to measure ADP produced in the phosphofructokinase reaction:
Following this kinase reaction, the addition of a reagent results in any unused background ATP being removed and the reaction is sequestered. A second reagent is then added to convert the remaining ADP to ATP which is coupled to the luciferase/luciferin reaction to produce light. ‘Ultrapure’ ATP and ADP from Promega were used to reduce background noise. All reagents additional to those provided in the Promega ADP-Glo™ kit were purchased from Sigma-Aldrich.
The assay buffer comprised 50 mM triethanolamine (TEA), 10 mM MgCl2, 5 mM KCl, 0.1% w/v bovine serum albumin (BSA), 0.005% Tween-20, 1% DMSO, pH 7.4. A 3-fold serial dilution of 250x inhibitor stocks was carried out in 100% DMSO. 2 µl of these dilutions was added to 198 µl assay buffer and mixed well using a multichannel pipette. […] Concentration ranges of inhibitor compounds were 40 - 0.006 µM (final concentration, 1% DMSO). The PFK reaction in the presence of inhibitor was carried out using 10 µl of 1 µg/ml PFK (final concentration 0.4 µg/ml) which was added to 10 µl of the 1% DMSO inhibitor compound serial dilutions in a white, non-binding 96-well plate (Greiner BioOne 655904). CTCB-001 was used as a positive control at a final concentration of 5 µM. Assay buffer containing 1% DMSO was added instead of inhibitor compound for the negative control. The protein/inhibitor mixture was incubated for 10 minutes at room temperature (RT). The kinase reaction was started by adding a 5x ATP/F6P stock in assay buffer (final concentrations 0.5 mM F6P and 0.1 mM ATP). Plates were then sealed, centrifuged at 560 x g for 30 seconds and incubated at RT for 30 minutes. 25 µl of ‘ADP-Glo™ Reagent’ was then added to each well, mixed using a multichannel pipette and incubated at room temperature for 40 minutes. 50 µl of ‘Kinase Detection Reagent’ was added and incubated for 50 minutes at RT. The luminescence was recorded using a Spectramax© M5 Multi-mode Plate Reader (Molecular Devices) in single-point mode, with an integration time of 750 milliseconds. The luminescence values were converted to ADP concentration using a standard calibration curve for ADP. The resulting ADP concentrations were plotted as a function of inhibitor compound concentration using Kaleidagraph 4.0 software. The data were analysed using non-linear regression and a sigmoidal curve was fitted (Supplementary Figure 1) to determine the IC50. Kaleidagraph 4.0 uses the Levenberg-Marquardt algorithm in an iterative procedure to fit non-linear curves. […] The slope of the curve at the midpoint (m4) was set to 1.

[3] = 72 h, read-out: EC50 (µM) in vitro parasite killing of bloodstream form T. brucei Lister 427 (Tbb EC50), 72 h, Alamar Blue
[4] = source data for Fig. 2 and Table 1, read-out: Average IC50
[5] = source data, read-out: IC50 (µM), single dated measurement
[6] = ADP-Glo, mean ± SD, read-out: IC50 (µM) for inhibition of T. brucei phosphofructokinase (PFK IC50)

| Compound | EC50 [1, 3] | IC50 [2, 4] | IC50 [2, 5] | further results |
| --- | --- | --- | --- | --- |
| Nc1nc(N)nc(Nc2ccc([As]3SCC(CO)S3)cc2)n1 (stereo not drawn) [Melarsoprol, melarsoprol, reference compound] | – | – | – | Whole body bioluminescence - Total Flux (T. b. brucei GVR35-VSL2; D21 pre-treatment, single mice): 9.807E+10 p/s and 6.826E+10 p/s and 5.548E+10 p/s; Side head bioluminescence - Total Flux (T. b. brucei GVR35-VSL2; D23, individual mice, Supp_Fig13): 2.996E+07 p/s and 8.365E+06 p/s and 9.321E+06 p/s; Ex vivo brain bioluminescence - Total Flux (T. b. brucei GVR35-VSL2; D23, single mice): 2.000E+06 p/s and 2.248E+06 p/s and 1.646E+06 p/s; Whole body bioluminescence - Total Flux (T. b. brucei GVR35-VSL2; D23 post-treatment, single mice): 1.530E+07 p/s and 2.111E+07 p/s and 2.252E+07 p/s |
| CC(CN)n1ccc2c(ccn2Cc2ccc(Cl)c(Cl)c2)c1=O (stereo not drawn) [CTCB-457] | 0.27 ± 0.01 µM | 0.11 µM | 0.092 µM and 0.122 µM | – |
| Clc1ccc(Cn2cnc3cnccc32)cc1Cl [CTCB107] | 8.5 ± 0.6 µM | 0.6 µM | 0.6 µM | IC50 [2, 6]: 1.14 ± 0.76 µM |
| CNC[C@@H](C)n1ccc2c(ccn2Cc2ccc(Cl)c(Cl)c2)c1=O [CTCB-481] | 0.15 ± 0.05 µM | 0.12 µM | 0.122 µM | – |
| Clc1ccc(Cn2ccnc2)cc1Cl [CTCB-12] | 8.9 ± 0.2 µM | – | – | L.E. ligand efficiency [2]: 0.51; IC50 ([2]; Average IC50 (µM), source data for Fig. 2 and Table 1): 0.83 µM; IC50 ([2]; IC50 (µM) for inhibition of T. brucei phosphofructokinase (PFK IC50), ADP-Glo, mean ± SD): 0.83 µM; IC50 ([2]; IC50 (µM), single dated measurement, source data): 0.83 µM |
| O=c1c2ccn(Cc3ccc(Cl)c(Cl)c3)c2ccn1CCO [CTCB-401] | 0.91 ± 0.04 µM | – | – | EC50 ([1]; read-out: EC50 against the parasite): 0.9 µM; IC50 ([2]; read-out: IC50 TbPFK): 0.073 µM |
| O=c1[nH]ccc2c1ccn2Cc1ccc(Cl)c(Cl)c1 [CTCB-360] | 1.1 ± 0.1 µM | 0.07 µM | 0.041 µM and 0.049 µM and 0.091 µM and 0.059 µM and 0.112 µM | – |
| NCCn1ccc2c(ccn2Cc2ccc(Cl)c(Cl)c2)c1=O [CTCB-421] | 0.54 ± 0.09 µM | 0.0335 µM | – | IC50 ([2]; read-out: IC50 TbPFK): 0.03 µM |
| Clc1ccc(Cn2ccc3cnccc32)cc1Cl [CTCB103] | 7.8 ± 0.1 µM | – | – | IC50 [2, 6]: 0.46 ± 0.03 µM |
